Experimental findings from patent US7390833B2, “Method for treating ADAMTS-5-associated disease” (Wyeth, priority 2003, dated 2008) are described below.

Usually IC50 stands for the midpoint of a concentration-inhibition curve.

SMILES strings stand for the structures.

For test [1], the target named is T1, ADAMTS-4 (Agg-1) (Homo sapiens, UniProt O75173).
T1 sequence (O75173 213-837): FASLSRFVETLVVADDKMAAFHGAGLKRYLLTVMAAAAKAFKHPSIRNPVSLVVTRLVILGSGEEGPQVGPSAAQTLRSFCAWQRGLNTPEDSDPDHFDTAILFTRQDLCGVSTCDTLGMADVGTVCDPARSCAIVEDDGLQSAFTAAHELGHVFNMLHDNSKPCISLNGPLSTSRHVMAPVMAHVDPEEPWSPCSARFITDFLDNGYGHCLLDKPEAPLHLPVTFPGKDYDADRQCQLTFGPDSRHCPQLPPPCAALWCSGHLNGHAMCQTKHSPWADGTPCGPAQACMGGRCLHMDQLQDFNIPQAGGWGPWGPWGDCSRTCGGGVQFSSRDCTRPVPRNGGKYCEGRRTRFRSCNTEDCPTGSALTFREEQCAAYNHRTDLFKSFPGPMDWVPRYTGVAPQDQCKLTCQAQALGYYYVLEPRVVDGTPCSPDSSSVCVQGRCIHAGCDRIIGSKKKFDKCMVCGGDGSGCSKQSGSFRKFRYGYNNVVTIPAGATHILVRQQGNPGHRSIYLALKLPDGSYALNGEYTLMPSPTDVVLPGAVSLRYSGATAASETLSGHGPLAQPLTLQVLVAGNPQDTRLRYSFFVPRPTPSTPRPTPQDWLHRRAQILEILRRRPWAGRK
Description: Inhibition of aggrecanase activity of ADAMTS-4 (Agg-1), continuous fluorescent quenched-peptide assay.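 Also: purified enzyme preincubated 10 min with inhibitor at room temperature, then initial substrate cleavage rate (RFU/min) read by fluorescence plate reader versus the uninhibited rate.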 In kind it is biochemical. The note with it: concentration that inhibits 50% of the aggrecanase activity of ADAMTS-4 (Agg-1).
Description: A continuous assay was used in which the substrate upon which Agg-1 and Agg-1 acts is a synthetic peptide containing a fluorescent group that is quenched by energy transfer. […] The initial rates of the reaction are compared to the initial rates of reactions containing the biaryl sulfonamide compounds in order to assess the inhibitor potency of the compounds.
The assay buffer (pH 7.4) consisted of 50 mM Hepes, 100 mM NaCl, 5 mM CaCl2, 0.1% CHAPS, 5% glycerol. Each well of black polystyrene 96-well or 384-well plates contained a reaction consisting of assay buffer, purified Agg-2 (diluted with assay buffer), and varied concentrations of inhibitor (prepared by serial dilution in DMSO in 96-well polypropylene plates). The plates were then incubated at room temperature for 10 minutes. […] The initial rates of the cleavage reactions were determined at room temperature with a fluorescence plate reader immediately after substrate addition.

Test [2] deals with T2, ADAMTS-5 (Agg-2), purified recombinant human Aggrecanase-2 (Ag2t-Phe628-Strep) (Homo sapiens, UniProt Q9UNA0).
T2 construct: the form used is denoted as Ag2t-Phe628-Strep (MW=41,737)
T2 sequence (Q9UNA0 262-628): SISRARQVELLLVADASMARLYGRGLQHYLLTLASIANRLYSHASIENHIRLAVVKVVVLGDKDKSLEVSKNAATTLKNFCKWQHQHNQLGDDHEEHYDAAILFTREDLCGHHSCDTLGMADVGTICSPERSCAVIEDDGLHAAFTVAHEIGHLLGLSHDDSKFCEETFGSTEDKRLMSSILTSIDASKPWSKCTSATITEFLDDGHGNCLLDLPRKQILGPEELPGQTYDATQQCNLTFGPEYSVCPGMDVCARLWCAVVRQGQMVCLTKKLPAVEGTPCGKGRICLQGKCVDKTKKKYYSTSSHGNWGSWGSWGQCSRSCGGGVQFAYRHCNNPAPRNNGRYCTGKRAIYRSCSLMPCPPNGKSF
Description: Inhibition of aggrecanase activity of ADAMTS-5 (Agg-2), continuous fluorescent quenched-peptide assay (WAKB-5 substrate). In kind it is biochemical. The note with it: concentration that inhibits 50% of the aggrecanase activity of ADAMTS-5 (Agg-2); substrate 25 μM, pH 7.4, room temperature. How it is done: The biaryl sulfonamide compounds of the present invention were tested for their ability to inhibit the aggrecanase activity of ADAMTS-4 (Agg-1) and ADAMTS-5 (Agg-2).
A continuous assay was used in which the substrate upon which Agg-1 and […] acts is a synthetic peptide containing a fluorescent group that is quenched by energy transfer. Cleavage of the peptide by the aggrecanase enzyme results in a large increase in fluorescence. The initial rates of the reaction are compared to the initial rates of reactions containing the biaryl sulfonamide compounds in order to assess the inhibitor potency of the compounds.
The source of enzyme in the assay is purified recombinant human Aggrecanase-2. More specifically, the form used is denoted as Ag2t-Phe628-Strep (MW=41,737). This form is truncated relative to the full-length enzyme and contains an affinity tag. Aliquots of this enzyme were stored at −80° C. in 25 mM Tris (pH 8.0), 100 mM NaCl, 5 mM CaCl2, 10 μM ZnCl2, 10% glycerol.
The substrate in the assay is a synthetic peptide that is designed after a portion of brevican, one of the naturally occurring substrates of Aggrecanase-2. […] WAKB-5 (mass=1740) was custom synthesized by AnaSpec, Inc. (San Jose, Calif.) and was >95% pure based on HPLC analysis. […] Stock solutions of the substrate were prepared with MilliQ water and aliquots were stored at −80° C. The concentration of this substrate stock was spectrophotometrically determined using the extinction coefficient at 354 nm of 18,172 M^−1 cm^−1.
The assay buffer (pH 7.4) consisted of 50 mM Hepes, 100 mM NaCl, 5 mM CaCl2, 0.1% CHAPS, 5% glycerol. Each well of black polystyrene 96-well or 384-well plates contained a reaction consisting of assay buffer, purified Agg-2 (diluted with assay buffer), and varied concentrations of inhibitor (prepared by serial dilution in DMSO in 96-well polypropylene plates). The plates were then incubated at room temperature for 10 minutes. The enzymatic reactions were initiated by adding substrate to a final concentration of 25 μM and were mixed by pipetting up and down. The initial rates of the cleavage reactions were determined at room temperature with a fluorescence plate reader immediately after substrate addition.
Analysis of the results was conducted by generating a plot of time vs. RFU for each sample. This was used as the “progress curve” of the reaction. The slope for the portion of the progress curve that is most linear was then determined. This slope (RFU/min) was used as the initial rate of the reaction. Plots of the inhibitor concentration vs. the initial cleavage rate were then fit to the following equation: y=Vmax*(1−(x^n/(K^n+x^n))), whereby x=inhibitor concentration, y=initial rate, Vmax=initial rate in the absence of inhibitor, n=slope factor, and K=IC50 for the inhibition curve.

As for `CC(C)[C@@H](NS(=O)(=O)c1ccc(-c2ccc(COc3ccc(Oc4ccccc4)cc3)cc2)cc1F)C(=O)O`, the IC50 is 100 nM in test [1] and above 200000 nM in test [2].
As for `COc1ccc(C(=O)c2ccc(OCc3ccc(-c4ccc(S(=O)(=O)N[C@@H](C(=O)O)C(C)C)cc4)cc3)cc2)cc1`, the IC50 in test [1] was 300 nM; in test [2] it was above 100000 nM.
On the same counts, the results for `CC(C)[C@@H](NS(=O)(=O)c1ccc(-c2ccc(COc3ccc(C(=O)N4CCCC4)cc3)cc2)cc1)C(=O)O` are 1900 nM and 67000 nM.
On the same counts, the results for `CC(C)[C@@H](NS(=O)(=O)c1ccc(-c2ccc(COc3cccc(O)c3)cc2)cc1)C(=O)O` are 1100 nM and 13000 nM.
On the same counts, the results for `CC(=O)c1cccc(OCc2ccc(-c3ccc(S(=O)(=O)N[C@@H](C(=O)O)C(C)C)cc3)cc2)c1` are 1000 nM and 12600 nM.
On to `CC(C)[C@@H](NS(=O)(=O)c1ccc(-c2ccc(COc3cccc4[nH]ccc34)cc2)cc1)C(=O)O`, for which the 50% inhibitory concentration (IC50) in test [1] was 1900 nM; in test [2], 12000 nM.
With `CC(C)[C@@H](NS(=O)(=O)c1ccc(-c2ccc(COc3ccc(F)cc3)cc2)cc1)C(=O)O`, the IC50 in test [1] was 1700 nM; in test [2] it was 11300 nM.
On the same counts, the results for `Cc1cc(-c2ccc(COc3ccc4c(c3)CCCC4=O)cc2)ccc1S(=O)(=O)N[C@@H](C(=O)O)C(C)C` are 900 nM and 11200 nM.
As for `COc1ccc(OCc2ccc(-c3ccc(S(=O)(=O)N[C@@H](C(=O)O)C(C)C)cc3)cc2)cc1`, the figures for the IC50 in test [1] and in test [2] were 1600 nM and 10700 nM, respectively.
Consider `CC(C)[C@@H](NS(=O)(=O)c1ccc(-c2ccc(COc3ccc(Oc4ccccn4)cc3)cc2)cc1)C(=O)O`, for which the IC50 amounted to 900 nM in test [1] and 10600 nM in test [2].
Take `CC(C)[C@@H](NS(=O)(=O)c1ccc(-c2ccc(COc3cccc(F)c3)cc2)cc1)C(=O)O`: the IC50 in test [2] was 8200 nM.
Take `CC(C)[C@@H](NS(=O)(=O)c1ccc(-c2ccc(COc3ccc4c(c3)CCCC4=O)cc2)cc1)C(=O)O`: the IC50 in test [1] turned out to be 200 nM; in test [2] it was 7500 nM.
On the same counts, the results for `CC(=O)c1ccc(OCc2ccc(-c3ccc(S(=O)(=O)N[C@@H](C(=O)O)C(C)C)cc3)cc2)cc1` are 400 nM and 7000 nM.
Consider `CC(C)[C@@H](NS(=O)(=O)c1ccc(-c2ccc(COc3ccc4c(c3)CCCC4=O)cc2)cc1F)C(=O)O`, for which the half-inhibitory concentration (IC50) in test [1] amounted to 200 nM; in test [2], 6600 nM.
On the same counts, the results for `CC(C)[C@@H](NS(=O)(=O)c1ccc(-c2ccc(COc3cccc(O)n3)cc2)cc1)C(=O)O` are 400 nM and 6500 nM.
On the same counts, the results for `COc1ccc(COc2ccc(-c3ccc(S(=O)(=O)N[C@@H](C(=O)O)C(C)C)cc3)cc2)cc1` are 1900 nM and 6300 nM.
On the same counts, the results for `COc1cccc(OCc2ccc(-c3ccc(S(=O)(=O)N[C@@H](C(=O)O)C(C)C)cc3)cc2)c1` are 1800 nM and 5800 nM.
In the case of `CC(C)[C@@H](NS(=O)(=O)c1ccc(-c2ccc(COc3ccc(NC(=O)OC(C)(C)C)cc3)cc2)cc1)C(=O)O`, the IC50 amounted to 600 nM in test [1] and 5400 nM in test [2].
As to `CC(C)[C@@H](NS(=O)(=O)c1ccc(-c2ccccc2)cc1)C(=O)O`, the IC50 was 2600 nM in test [1] and 5000 nM in test [2].
As for `Cc1cccc(Oc2ccc(OCc3ccc(-c4ccc(S(=O)(=O)N[C@@H](C(=O)O)C(C)C)cc4)cc3)cc2)n1`, the IC50 in test [1] is 700 nM; in test [2], 4000 nM.
On the same counts, the results for `Cc1cccc(Oc2ccc(OCc3ccc(-c4ccc(S(=O)(=O)N[C@@H](C(=O)O)C(C)C)c(F)c4)cc3)cc2)n1` are 900 nM and 3500 nM.
Take `Cc1c(COc2ccc(-c3ccc(S(=O)(=O)N[C@@H](C(=O)O)C(C)C)cc3)cc2)oc2ccccc12`: the IC50 came out at 1100 nM in test [1] and 3400 nM in test [2].
On the same counts, the results for `CC(C)[C@@H](NS(=O)(=O)c1ccc(-c2ccc(COc3cccc(C(=O)c4ccccc4)c3)cc2)cc1)C(=O)O` are 200 nM and 3400 nM.
On the same counts, the results for `Cc1cccc(Oc2ccc(OCc3ccc(-c4ccc(S(=O)(=O)N[C@@H](C(=O)O)C(C)C)c(Cl)c4)cc3)cc2)n1` are 900 nM and 3200 nM.
On the same counts, the results for `COc1cc(COc2ccc(-c3ccc(S(=O)(=O)N[C@@H](C(=O)O)C(C)C)cc3)cc2)cc(OC)c1` are 1900 nM and 3200 nM.
For the molecule `CC(C)[C@@H](NS(=O)(=O)c1ccc(-c2ccc(OCc3ccc4c(c3)OCCO4)cc2)cc1)C(=O)O`, the IC50 in test [1] is 1400 nM; in test [2], 3000 nM.
Turning to `O=C(O)CC[C@H](NC(=O)c1ccc(-c2ccccc2)cc1)C(=O)NCc1ccc(F)cc1`, the IC50 is 200 nM in test [1] and 2800 nM in test [2].
In the case of `CC(C)[C@@H](NS(=O)(=O)c1ccc(-c2ccc(COc3ccc(C(=O)C4CCCCC4)cc3)cc2)cc1)C(=O)O`, the IC50 in test [1] turned out to be 100 nM; in test [2] it was 2600 nM.
With `CC(C)[C@@H](NS(=O)(=O)c1ccc(-c2ccc(COc3cccc(C(=O)C4CCCCC4)c3)cc2)cc1)C(=O)O`, the IC50 stood at 400 nM in test [1] and 2400 nM in test [2].
Regarding `CC(C)[C@@H](NS(=O)(=O)c1ccc(-c2ccc(COc3ccc4c(c3)CCC4)cc2)cc1)C(=O)O`, the IC50 in test [1] turned out to be 400 nM; in test [2], 2400 nM.
With `CC(C)[C@@H](NS(=O)(=O)c1ccc(-c2ccc(COc3ccc(C(=O)c4ccccc4)cc3)cc2)cc1)C(=O)O`, the IC50 in test [1] is 200 nM; in test [2], 2000 nM.
On the same counts, the results for `CC(C)[C@@H](NS(=O)(=O)c1ccc(-c2ccc(COc3cc(C(F)(F)F)nc4c(C(F)(F)F)cccc34)cc2)cc1)C(=O)O` are 200 nM and 1800 nM.
As for `CC(C)[C@@H](NS(=O)(=O)c1ccc(-c2ccc(COc3ccc(C4CCCC4)cc3)cc2)cc1)C(=O)O`, the figures for the IC50 in test [1] and in test [2] were 400 nM and 800 nM, respectively.
On the same counts, the results for `CC(C)[C@@H](NS(=O)(=O)c1ccc(-c2ccc(COc3ccc(Oc4ccccc4)cc3)cc2)cc1)C(=O)O` are 400 nM and 400 nM.
On the same counts, the results for `CC(C)C(=O)c1ccc(OCc2ccc(-c3ccc(S(=O)(=O)N[C@@H](C(=O)O)C(C)C)cc3)cc2)cc1` [drawing 151] are 100 nM and 8400 nM.
On the same counts, the results for `CC(C)C(=O)c1ccc(OCc2ccc(-c3ccc(S(=O)(=O)N[C@@H](C(=O)O)C(C)C)cc3)cc2)cc1` [drawing 152] are 100 nM and 8400 nM.
